{"source": "patent US20220267380A1", "about": "“Glycopeptides Increasing Lipid Synthesis” (TFCHEM, priority 2019, published 2022)", "system": "normal human dermal fibroblasts (NHDF)", "experiment": "Gene expression in NHDF, full transcriptome analysis with Affymetrix U219 microarray", "format": "cell-based", "settings": "NHDF, 10 mg/ml, 24 h", "description": "In the present study, the transcriptional effects (modulation of gene expression) of compounds 1, 2, 3 and 4 were evaluated on normal human dermal fibroblasts (NHDF) under basal conditions.\nMore specifically, the comparative analysis of the different transcriptomic profiles was performed using an Affymetrix GeneAtlas platform and the human “full transcriptome” U219 chip, which includes 36,000 transcripts and variants.\nFibroblasts were seeded in 24-well plates and cultured in culture medium for 24 hours. The medium was then replaced by assay medium and cells were incubated for further 24 hours. The medium was replaced by assay medium containing or not (control) the test compounds at different concentrations and the cells were preincubated for 24 hours. All experimental conditions were performed in triplicate. At the end of incubation, the culture supernatants were removed and the cells were washed in a phosphate buffered saline (PBS) solution and immediately frozen at −80° C.\nBefore RNA extraction, the replicates were pooled. Total RNA was extracted from each sample using TriPure Isolation Reagent® according to the supplier's instructions. The amount and quality of total RNA were evaluated for all samples using capillary electrophoresis (Bioanalyzer 2100, Agilent technologies). From each RNA, a labeled and amplified anti-sens RNA (aRNA) was obtained using GeneChip 3′IVT PLUS Kit (Affymetrix). For each labeled and amplified aRNA sample the profiles were evaluated before and after fragmentation using capillary electrophoresis (Bioanalyzer 2100, Agilent technologies). Hybridization of fragmented aRNA onto Affymetrix® U219 chip (36,000 transcripts and variants) was performed in the GeneAtlas™ fluidics Affymetrix® hybridization station for 20 hours at 45° C. U219 chip was analyzed using the GeneAtlas™ Imaging station (Affymetrix®—resolution 2 μm) to generate fluorescence intensity data.\nExpression Console and Quality controls: data were normalized with the Expression Console (Affymetrix®) software using RMA algorithm. Then a quality control of the labeling and the hybridization was performed. Hybridization and labeling steps successfully passed the quality controls for these experiments.\nData reduction, Excel file description: once normalized with Expression Console, data were transferred into a Microsoft Excel® file in order to go further into data reduction.\nCalculation and tools were added in order to rank and sort data, and finally to support data interpretation. Detection thresholds in terms of fold change were defined and applied on normalized data.\nResults are considered and presented or commented per gene (and not probe). A probe set is a collection of probes designed to interrogate a given sequence of a gene. For data interpretation, the most important relative expression value obtained with one probe is considered to be representative of the corresponding gene. The file contains the following data: • Relative expression (RE) for each sample, • Fold change calculation, • Gene information.", "key": {"[1]": {"settings": "relative expression adjusted to detection limit (<20)"}}}
{"smiles": "N[C@@H](CCCCNCC(F)(F)[C@]1(O)O[C@H](CO)[C@H](O)[C@H](O)[C@H]1O)C(=O)O", "note": "[Compound 3]", "values": [{"measurement": "Fold change, FADS1", "setting": "vs control, Affymetrix probe set 11752670_a_at", "result": 3.55}, {"measurement": "Fold change, TPP1", "setting": "vs control, Affymetrix probe set 11753248_a_at", "result": 2.05}, {"measurement": "Fold change, GBA///GBAP1", "setting": "vs control, Affymetrix probe set 11753439_a_at", "result": 2.35}, {"measurement": "Fold change, GBA", "setting": "vs control, Affymetrix probe set 11753440_x_at", "result": 2.30}, {"measurement": "Fold change, GBA///GBAP1", "setting": "vs control, Affymetrix probe set 11754819_x_at", "result": 2.08}, {"measurement": "Fold change, LPCAT3", "setting": "vs control, Affymetrix probe set 11755123_x_at", "result": 2.13}, {"measurement": "Fold change, FADS1", "setting": "vs control, Affymetrix probe set 11755251_x_at", "result": 3.75}, {"measurement": "Fold change, LPCAT3", "setting": "vs control, Affymetrix probe set 11757008_a_at", "result": 2.39}, {"measurement": "Fold change, TPP1", "setting": "vs control, Affymetrix probe set 11757469_s_at", "result": 2.14}, {"measurement": "Fold change, HSD17B14", "setting": "vs control, Affymetrix probe set 11757575_x_at", "result": 2.92}, {"measurement": "Fold change, TM7SF2", "setting": "vs control, Affymetrix probe set 11762755_x_at", "result": 2.10}, {"measurement": "REadj2, ACOT1///ACOT2", "setting": "[1]", "result": 462.96}, {"measurement": "REadj2, APOD", "setting": "[1]", "result": 154.78}, {"measurement": "REadj2, DHCR7", "setting": "[1]", "result": 1097.58}, {"measurement": "REadj2, FADS2", "setting": "[1]", "result": 263.98}, {"measurement": "REadj2, GBAP1", "setting": "[1]", "result": 186.37}, {"measurement": "REadj2, HACD1", "setting": "[1]", "result": 674.65}, {"measurement": "REadj2, HMGCS1", "setting": "[1]", "result": 1170.64}, {"measurement": "REadj2, LRP8", "setting": "[1]", "result": 125.76}, {"measurement": "REadj2, MVD", "setting": "[1]", "result": 534.91}, {"measurement": "REadj2, NCOR1", "setting": "[1]", "result": 68.44}, {"measurement": "REadj2, NEU1", "setting": "[1]", "result": 722.33}, {"measurement": "REadj2, NPC1", "setting": "[1]", "result": 154.34}, {"measurement": "REadj2, PHLDB2", "setting": "[1]", "result": 66.17}, {"measurement": "REadj2, PHYH", "setting": "[1]", "result": 813.79}, {"measurement": "REadj2, PLA2G15", "setting": "[1]", "result": 82.36}, {"measurement": "REadj2, PLA2G16", "setting": "[1]", "result": 222.24}, {"measurement": "REadj2, PRKAB2", "setting": "[1]", "result": 21.07}, {"measurement": "REadj2, PTGDS", "setting": "[1]", "result": 1080.74}, {"measurement": "REadj2, SOAT1", "setting": "[1]", "result": 393.50}, {"measurement": "REadj2, SPHK1", "setting": "[1]", "result": 195.74}, {"measurement": "REadj2, SREBF1", "setting": "[1]", "result": 312.15}, {"measurement": "REadj2, TXNRD1", "setting": "[1]", "result": 1483.80}, {"measurement": "REadj2, VAC14", "setting": "[1]", "result": 105.84}, {"measurement": "REadj2, SCD", "setting": "relative expression adjusted to detection limit (<20), Affymetrix probe set 11715561_s_at", "result": 634.95}, {"measurement": "REadj2, SCD", "setting": "relative expression adjusted to detection limit (<20), Affymetrix probe set 11715562_x_at", "result": 722.36}, {"measurement": "REadj2, SCD", "setting": "relative expression adjusted to detection limit (<20), Affymetrix probe set 11715563_s_at", "result": 558.17}, {"measurement": "REadj2, G6PD", "setting": "relative expression adjusted to detection limit (<20), Affymetrix probe set 11716292_a_at", "result": 348.08}, {"measurement": "REadj2, G6PD", "setting": "relative expression adjusted to detection limit (<20), Affymetrix probe set 11716293_x_at", "result": 239.53}, {"measurement": "REadj2, INSIG1", "setting": "relative expression adjusted to detection limit (<20), Affymetrix probe set 11716338_a_at", "result": 1101.68}, {"measurement": "REadj2, INSIG1", "setting": "relative expression adjusted to detection limit (<20), Affymetrix probe set 11716339_a_at", "result": 1249.89}, {"measurement": "REadj2, PPT1", "setting": "relative expression adjusted to detection limit (<20), Affymetrix probe set 11716533_a_at", "result": 249.91}, {"measurement": "REadj2, EBP", "setting": "relative expression adjusted to detection limit (<20), Affymetrix probe set 11717859_a_at", "result": 1025.83}, {"measurement": "REadj2, HSD17B14", "setting": "relative expression adjusted to detection limit (<20), Affymetrix probe set 11720588_a_at", "result": 154.64}, {"measurement": "REadj2, SERINC2", "setting": "relative expression adjusted to detection limit (<20), Affymetrix probe set 11721046_a_at", "result": 462.86}, {"measurement": "REadj2, ME1", "setting": "relative expression adjusted to detection limit (<20), Affymetrix probe set 11726265_at", "result": 1130.68}, {"measurement": "REadj2, CHKA", "setting": "relative expression adjusted to detection limit (<20), Affymetrix probe set 11736285_a_at", "result": 137.49}, {"measurement": "REadj2, CHKA", "setting": "relative expression adjusted to detection limit (<20), Affymetrix probe set 11736286_a_at", "result": 138.86}, {"measurement": "REadj2, ASAH1", "setting": "relative expression adjusted to detection limit (<20), Affymetrix probe set 11740582_a_at", "result": 1292.95}, {"measurement": "REadj2, PPT1", "setting": "relative expression adjusted to detection limit (<20), Affymetrix probe set 11742107_a_at", "result": 289.70}, {"measurement": "REadj2, ASAH1", "setting": "relative expression adjusted to detection limit (<20), Affymetrix probe set 11743547_a_at", "result": 1038.22}, {"measurement": "REadj2, PCYT2", "setting": "relative expression adjusted to detection limit (<20), Affymetrix probe set 11744044_s_at", "result": 239.50}, {"measurement": "REadj2, FADS1", "setting": "relative expression adjusted to detection limit (<20), Affymetrix probe set 11745459_a_at", "result": 1891.83}, {"measurement": "REadj2, LDLR", "setting": "relative expression adjusted to detection limit (<20), Affymetrix probe set 11746974_a_at", "result": 357.86}, {"measurement": "REadj2, PCYT2", "setting": "relative expression adjusted to detection limit (<20), Affymetrix probe set 11747322_s_at", "result": 216.32}, {"measurement": "REadj2, LDLR", "setting": "relative expression adjusted to detection limit (<20), Affymetrix probe set 11748045_x_at", "result": 380.34}, {"measurement": "REadj2, SERINC2", "setting": "relative expression adjusted to detection limit (<20), Affymetrix probe set 11748053_x_at", "result": 342.33}, {"measurement": "REadj2, TM7SF2", "setting": "relative expression adjusted to detection limit (<20), Affymetrix probe set 11748279_s_at", "result": 91.54}, {"measurement": "REadj2, EBP", "setting": "relative expression adjusted to detection limit (<20), Affymetrix probe set 11749332_x_at", "result": 907.86}, {"measurement": "REadj2, ABHD4", "setting": "relative expression adjusted to detection limit (<20), Affymetrix probe set 11749343_a_at", "result": 66.31}, {"measurement": "REadj2, ABHD4", "setting": "relative expression adjusted to detection limit (<20), Affymetrix probe set 11749376_a_at", "result": 69.48}, {"measurement": "REadj2, ME1", "setting": "relative expression adjusted to detection limit (<20), Affymetrix probe set 11750913_a_at", "result": 861.69}, {"measurement": "REadj2, GBA", "setting": "relative expression adjusted to detection limit (<20), Affymetrix probe set 11750975_x_at", "result": 250.68}, {"measurement": "REadj2, GBA", "setting": "relative expression adjusted to detection limit (<20), Affymetrix probe set 11751086_x_at", "result": 255.53}, {"measurement": "REadj2, DHCR24", "setting": "relative expression adjusted to detection limit (<20), Affymetrix probe set 11751337_a_at", "result": 191.39}, {"measurement": "REadj2, DHCR24", "setting": "relative expression adjusted to detection limit (<20), Affymetrix probe set 11751338_x_at", "result": 364.97}, {"measurement": "REadj2, G6PD", "setting": "relative expression adjusted to detection limit (<20), Affymetrix probe set 11752486_a_at", "result": 224.35}, {"measurement": "REadj2, FADS1", "setting": "relative expression adjusted to detection limit (<20), Affymetrix probe set 11752670_a_at", "result": 3012.88}, {"measurement": "REadj2, GBA", "setting": "relative expression adjusted to detection limit (<20), Affymetrix probe set 11753440_x_at", "result": 139.49}, {"measurement": "REadj2, FADS1", "setting": "relative expression adjusted to detection limit (<20), Affymetrix probe set 11755251_x_at", "result": 1908.34}, {"measurement": "REadj2, HSD17B14", "setting": "relative expression adjusted to detection limit (<20), Affymetrix probe set 11757575_x_at", "result": 89.08}, {"measurement": "REadj2, TM7SF2", "setting": "relative expression adjusted to detection limit (<20), Affymetrix probe set 11762755_x_at", "result": 61.24}]}
